Laboratory results: patent US11033568B2, “Nicotinamide riboside compositions for topical use in treating skin conditions” (ChromaDex Inc., priority 2013, dated 2021)

Legend:
[1] = test system: A431 human epidermoid cells; test: Oxidative damage protection assay (1 mM H2O2, alamar blue cell viability); type: cell-based; conditions: for percent cytoprotection: 1 mM H2O2, vs positive (H2O2) control
Procedure: A431 human epidermoid cells (ATCC #CRL1555) were grown in DMEM media supplemented with 10% FBS and 1% PenStrep in T75 flasks based on culture recommendations. The media was replaced every two-three days till >80% confluency was attained. The cells were trypsinized with 0.25% trypsin EDTA solution for 2-3 minutes until the cells were dislodged. The cells were sub-cultured in a ratio of 1:3 for further growth and scale-up for the assay. The cells were trypsinized and counted to a density of 5,000 or 15,000 cells and seeded in […], media/well in 96-well clear bottom black plates. The outer wells at the periphery of the plates were left unseeded and were instead filled with media to reduce the edge effect during incubation. The plates were incubated overnight in a humidified incubator at 37° C./5% CO2 to confirm that the cells were attached. The Nicotinamide Riboside chloride (NR chloride) was added at indicated final assay concentrations in the media either under pre-treatment for 24 h (without hydrogen peroxide) or along with 1 mM hydrogen peroxide for an incubation of 20 h in a humidified incubator at 37° C./5% CO2 either with media replenishment at 8 h or under growth synchronized conditions using 1% FBS. Each concentration was tested in 6 replicates. Appropriate controls: cells without compound and hydrogen peroxide (no cytotoxicity; negative control), cells without compound but in the presence of 1 mM hydrogen peroxide (positive control), wells with alamar blue alone (blank) were kept in each assay. Cell viability was graphed and data was represented as percent cytotoxicity for 1 mM H2O2 under a given assay condition with respect to negative (untreated control) cells or percent cytoprotection in the presence of the test compound calculated with respect to positive (1 mM H2O2) control.

A431 cell line = test: UV-C damage assay, cyclobutane pyrimidine dimer (CPD) ELISA; type: cell-based, human; conditions: for cyclobutane pyrimidine dimer (CPD) level vs. control: 2 h pre-treatment, 10 J/m^2 UVC
Procedure: The A431 cell line was seeded in 6-wells plate at a seeding density of 4×10^5 cells/well in 2 ml of culture media containing 10% FBS. The cells were left untreated as a control or treated with different concentrations of NR chloride in the media (5 mM and 1 mM) for 2 h under a fully humidified atmosphere containing 5% CO2 at 37° C. After incubation, culture media was replaced by PBS and cells were exposed to 10 J/m^2 UVC irradiation. Plates were harvested along with respective controls immediately after UVC exposure (Negative Control was cells without UV-C exposure while Positive Control was untreated Cells with UV-C exposure). DNA from cells in each condition was extracted and quantified by NanoDrop. DNA samples were then added in the ELISA plate at 100 ng/well conc. and amount of cyclobutane pyrimidine dimer (CPD) was estimated in the DNA samples using CPD-DNA estimation kits (OxiSelect™, Cell Biolabs, Inc., San Diego, USA) as per manufacturer's protocol.

NIH 3T3 fibroblasts = test: Scratch wound healing assay (CytoSelect Wound Healing Assay Kit); type: cell-based, mouse
Procedure: NIH 3T3 fibroblasts were obtained from […]) and cultured in Dulbecco's modified Eagle's medium (DMEM) supplemented with 10% fetal bovine serum (FBS), 4 mM L-glutamine, 1% penicillin/streptomycin under a fully humidified atmosphere containing 5% CO2 at 37° C. For experiments, cells were collected from subconfluent monolayers with trypsin/EDTA. Cell viability was higher as 95% using trypan blue dye exclusion staining. The study was carried out using cells from passages 4-7 in DMEM medium containing 1% FBS. Untreated cells (1% FBS) were used as negative controls. The effect of nicotinamide riboside chloride (NR chloride) on wound closure in NIH 3T3 fibroblasts was investigated. Cell viability was determined by cell titer blue (Promega), wound closure by CytoSelectTM Wound Healing Assay Kit (Cell Biolabs, Inc., San Diego, USA). All conditions were performed in three independent, controlled experiments. […] Microscopic imaging of wound closure was analyzed using “Image J” software. […] Apart from microscopic observations, data was analyzed for the determination of total surface area of the defined wound area using “Image J” software. Surface area of the migrated cells into the wound area was calculated by subtracting surface area after 24 hour from total surface area of the wound at “0” hour. […]

[2] = cited from earlier work

| Compound | percent cytoprotection ([1]; 0.04 mM, normal growth (10% FBS)) | percent cytoprotection ([1]; 0.2 mM, growth synchronized (1% FBS)) | percent cytoprotection ([1]; 0.2 mM, normal growth (10% FBS)) | percent cytoprotection ([1]; 1 mM, growth synchronized (1% FBS)) | percent cytoprotection ([1]; 1 mM, normal growth (10% FBS)) | percent cytoprotection ([1]; 5 mM, growth synchronized (1% FBS)) | reduction of oxidative damage-mediated cell death ([1]; expected) | reduction of oxidative damage-mediated cell death ([1]; summary over conditions, even in growth arrested condition) | cyclobutane pyrimidine dimer (CPD) level vs. control (A431 cell line; +1 mM, 1.2 μg/ml DNA control) | cyclobutane pyrimidine dimer (CPD) level vs. control (A431 cell line; +1 mM, 2.1 μg/ml DNA control) | cyclobutane pyrimidine dimer (CPD) level vs. control (A431 cell line; +5 mM, 1.2 μg/ml DNA control) | cyclobutane pyrimidine dimer (CPD) level vs. control (A431 cell line; +5 mM, 2.1 μg/ml DNA control) | reduction of levels of CPDs (A431 cell line; expected) | gap closure (NIH 3T3 fibroblasts; 0.2 mM + 1% FBS) | gap closure (NIH 3T3 fibroblasts; 1 mM + 1% FBS, 24 hour incubation) | half life t1/2 ([2]; in blood) | oral bioavailability ([2]; in vivo, po) |
| --- | --- | --- | --- | --- | --- | --- | --- | --- | --- | --- | --- | --- | --- | --- | --- | --- | --- |
| NC(=O)c1ccc[n+]([C@@H]2O[C@H](CO)[C@@H](O)[C@H]2O)c1 [NR chloride, Nicotinamide Riboside chloride] | −1% | 2% | 8% | 15% | 23% | 38% | at least 10% | 10-40% | −32% | −41% | −34% | −50% | at least 10% | 13% | 46% | – | – |
| COc1cc(/C=C/c2ccc(O)cc2)cc(OC)c1 [pterostilbene, 3,5-dimethoxy-4′-hydroxy-trans-stilbene] | – | – | – | – | – | – | – | – | – | – | – | – | – | – | – | about 105 minutes | orally bioavailable |
